Key:
[1] = xn = mol fraction of the nth substance listed; settings: 100 kPa, Liquid, x2 = 0.334; for mass density: Vibrating tube method; for viscosity: Cone and plate viscometry
[2] = Molar enthalpy of transition or fusion; settings: Crystal 2; DSC
[3] = Crystal 2; visual observation

NC(N)=O [urea] + C[N+](C)(C)CCO.[Cl-]
[1]
Settings | mass density [kg/m3] | viscosity [mPa·s]
293.15 K | 1203 | –
293.25 K | – | 2110
299.45 K | – | 1286
303.15 K | 1197 | –
305.85 K | – | 725
312.15 K | – | 432
313.15 K | 1192 | –
318.35 K | – | 265
323.15 K | 1186 | –
324.55 K | – | 170
330.95 K | – | 116
333.15 K | 1180 | –
337.15 K | – | 83
343.15 K | 1175 | –
343.35 K | – | 61
349.55 K | – | 46
353.15 K | 1170 | –
355.85 K | – | 36
362.05 K | – | 27
363.15 K | 1164 | –
368.25 K | – | 21

C[N+](C)(C)CCO.[Cl-] [choline chloride]
Settings | Molar enthalpy of transition or fusion [kcal/mol] | Triple point temperature [K]
[2] | 1.75 | –
[3] | – | 351.62
